Reference: patent US10308644B2, “Heterocyclic compounds as immunomodulators” (Incyte Corporation, priority 2016, dated 2019)

What follows are compounds tested against PD-1/PD-L1 (Homo sapiens (Human), UniProt Q9NZQ7) (assay: PD-1/PD-L1 Homogeneous Time-Resolved Fluorescence (HTRF) Binding Assay). Settings: recombinant human PD-1 (3 nM) and PD-L1 (10 nM), 25° C., PBS pH 7.4.
Protocol: Example A. PD-1/PD-L1 Homogeneous Time-Resolved Fluorescence (HTRF) Binding Assay
The assays were conducted in a standard black 384-well polystyrene plate with a final volume of 20 μL. Inhibitors were first serially diluted in DMSO and then added to the plate wells before the addition of other reaction components. The final concentration of DMSO in the assay was 1%. The assays were carried out at 25° C. in the PBS buffer (pH 7.4) with 0.05% Tween-20 and 0.1% BSA. Recombinant human PD-L1 protein (19-238) with a His-tag at the C-terminus was purchased from AcroBiosystems (PD1-H5229). Recombinant human PD-1 protein (25-167) with Fc tag at the C-terminus was also purchased from AcroBiosystems (PD1-H5257). PD-L1 and PD-1 proteins were diluted in the assay buffer and 10 μL was added to the plate well. Plates were centrifuged and proteins were preincubated with inhibitors for 40 minutes. The incubation was followed by the addition of 10 μL of HTRF detection buffer supplemented with Europium cryptate-labeled anti-human IgG (PerkinElmer-AD0212) specific for Fc and anti-His antibody conjugated to SureLight®-Allophycocyanin (APC, PerkinElmer-AD0059H). After centrifugation, the plate was incubated at 25° C. for 60 min. before reading on a PHERAstar FS plate reader (665 nm/620 nm ratio). Final concentrations in the assay were—3 nM PD1, 10 nM PD-L1, 1 nM europium anti-human IgG and 20 nM anti-His-Allophycocyanin. IC50 determination was performed by fitting the curve of percent control activity versus the log of the inhibitor concentration using the GraphPad Prism 5.0 software.

Chain of PD-1/PD-L1 (Q9NZQ7 19-238): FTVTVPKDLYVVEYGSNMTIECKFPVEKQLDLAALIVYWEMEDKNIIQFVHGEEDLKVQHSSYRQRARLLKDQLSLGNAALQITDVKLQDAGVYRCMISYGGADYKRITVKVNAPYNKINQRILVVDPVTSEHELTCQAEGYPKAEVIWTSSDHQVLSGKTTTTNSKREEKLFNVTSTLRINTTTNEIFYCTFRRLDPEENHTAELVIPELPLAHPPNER

Row | SMILES | IC50
1 | Cc1c(-c2nc3c(o2)CN(C(=O)CN2CCC(O)CC2)C3)cccc1-c1cccc(-c2nc3cc(CN4CC[C@@H](C(=O)O)C4)cc(C#N)c3o2)c1C [Example 250, (R)-1-((7-cyano-2-(3′-(5-(2-(4-hydroxypiperidin-1-yl)acetyl)-5,6-dihydro-4H-pyrrolo[3,4-d]oxazol-2-yl)-2,2′-dimethyl-[1,1′-biphenyl]-3-yl)benzo[d]oxazol-5-yl)methyl)pyrrolidine-3-carboxylic acid] | ≤ 0.01 µM
2 | CCN(C)CC(=O)N1Cc2nc(-c3cccc(-c4cccc(-c5nc6cc(CN7CC8(C(=O)O)CC7C8)cc(C#N)c6o5)c4C)c3C)sc2C1 [Example 220, 2-((7-cyano-2-(3′-(5-(2-(ethyl(methyl)amino)acetyl)-5,6-dihydro-4H-pyrrolo[3,4-d]thiazol-2-yl)-2,2′-dimethylbiphenyl-3-yl)benzo[d]oxazol-5-yl)methyl)-2-azabicyclo[2.1.1]hexane-4-carboxylic acid] | ≤ 0.01 µM
3 | Cc1c(-c2nc3cc(CN4CC[C@@H](O)C4)cc(C#N)c3o2)cccc1-c1cccc(NC(=O)c2nc3c(n2C)CCN(CC2CCC(C)(C(=O)O)CC2)C3)c1Cl (single isomer, unassigned; peak 1) [Example 268] | ≤ 0.01 µM
4 | CCN1CCN(CC(=O)N2Cc3nc(-c4cccc(-c5cccc(-c6nc7cc(CN8CC[C@@](C)(C(=O)O)C8)cc(C#N)c7o6)c5C)c4C)sc3C2)CC1 [Example 223, (R)-1-((7-cyano-2-(3′-(5-(2-(4-ethylpiperazin-1-yl)acetyl)-5,6-dihydro-4H-pyrrolo[3,4-d]thiazol-2-yl)-2,2′-dimethylbiphenyl-3-yl)benzo[d]oxazol-5-yl)methyl)-3-methylpyrrolidine-3-carboxylic acid] | ≤ 0.01 µM
5 | Cc1c(COc2cc(OCc3cncc(C#N)c3)c(CN3CCCC[C@H]3C(=O)O)cc2Cl)cccc1-c1cccc(-c2nc3cc(CN4CC[C@@H](C(=O)O)C4)cc(Cl)c3o2)c1C [Example 149, (S)-1-(4-((3′-(5-(((R)-3-carboxypyrrolidin-1-yl)methyl)-7-chlorobenzo[d]oxazol-2-yl)-2,2′-dimethyl-[1,1′-biphenyl]-3-yl)methoxy)-5-chloro-2-((5-cyanopyridin-3-yl)methoxy)benzyl)piperidine-2-carboxylic acid] | 0.01 to 0.1 µM
6 | Cc1c(-c2nc3c(o2)CCNC3)cccc1-c1cccc(-c2nc3cc(CN4CC(C(=O)O)C4)cc(Cl)c3o2)c1C [Example 77, 1-((7-chloro-2-(2,2′-dimethyl-3′-(4,5,6,7-tetrahydrooxazolo[4,5-c]pyridin-2-yl)-[1,1′-biphenyl]-3-yl)benzo[d]oxazol-5-yl)methyl)azetidine-3-carboxylic acid] | ≤ 0.01 µM
7 | Cc1c(-c2nc3cc(CN4CC[C@@](C)(C(=O)O)C4)cc(C#N)c3o2)cccc1-c1cccc(NC(=O)c2nc3c(n2C)CCN(C)C3)c1Cl [Example 88, (R)-1-((2-(2′-chloro-3′-(1,5-dimethyl-4,5,6,7-tetrahydro-1H-imidazo[4,5-c]pyridine-2-carboxamido)-2-methylbiphenyl-3-yl)-7-cyanobenzo[d]oxazol-5-yl)methyl)-3-methylpyrrolidine-3-carboxylic acid] | ≤ 0.01 µM
8 | Cc1c(-c2nc3c(o2)CN(C(=O)CN(C)CCO)C3)cccc1-c1cccc(-c2nc3cc(CN4CC[C@@](C)(C(=O)O)C4)cc(C#N)c3o2)c1C [Example 252, (R)-1-((7-cyano-2-(3′-(5-(N-(2-hydroxyethyl)-N-methylglycyl)-5,6-dihydro-4H-pyrrolo[3,4-d]oxazol-2 yl)-2,2'-dimethyl-[1,1′-biphenyl]-3-yl)benzo[d]oxazol-5-yl)methyl)-3-methylpyrrolidine-3-carboxylic acid] | ≤ 0.01 µM
9 | Cc1c(-c2nc3cc(CN4CC[C@@H](O)C4)cc(C#N)c3o2)cccc1-c1cccc(NC(=O)c2nc3c(n2C)CCN(C2CCCC(C(=O)O)CC2)C3)c1Cl (stereo partly drawn) [Example 264, 4-(2-(2-chloro-3′-(7-cyano-5-(((R)-3-hydroxypyrrolidin-1-yl)methyl)benzo[d]oxazol-2-yl)-2′-methylbiphenyl-3-ylcarbamoyl)-1-methyl-6,7-dihydro-1H-imidazo[4,5-c]pyridin-5(4H)-yl)cycloheptane carboxylic acid] | ≤ 0.01 µM
10 | Cc1c(-c2nc3cc(CN4CC[C@@H](O)C4)cc(C#N)c3o2)cccc1-c1cccc(NC(=O)c2nc3c(n2C)CCN(C2CC(C)(C(=O)O)C2)C3)c1Cl (stereo partly drawn) [Example 263, (R)-3-(2-(2-chloro-3′-(7-cyano-5-((3-hydroxypyrrolidin-1-yl)-methyl)benzo[d]oxazol-2-yl)-2′-methylbiphenyl-3-ylcarbamoyl)-1-methyl-6,7-dihydro-1H-imidazo[4,5-c]pyridin-5(4H)-yl)-1-methylcyclobutanecarboxylic acid] | ≤ 0.01 µM
11 | CCN(C)CC(=O)N1Cc2nc(-c3cccc(-c4cccc(-c5nc6cc(CN7CC[C@@](C)(C(=O)O)C7)cc(C#N)c6o5)c4C)c3C)oc2C1 [Example 243, (R)-1-((7-cyano-2-(3′-(5-(N-ethyl-N-methylglycyl)-5,6-dihydro-4H-pyrrolo[3,4-d]oxazol-2-yl)-2,2′-dimethyl-[1,1′-biphenyl]-3-yl)benzo[d]oxazol-5-yl)methyl)-3-methylpyrrolidine-3-carboxylic acid] | ≤ 0.01 µM

More lines, now with the values ahead:

Row | IC50 | SMILES
12 | ≤ 0.01 µM | Cc1c(Nc2ncnc3cc(CN4CC[C@@H](O)C4)cnc23)cccc1-c1cccc(-c2nc3cc(CN4CC[C@@](C)(C(=O)O)C4)cc(C#N)c3o2)c1C [Example 205, (R)-1-((7-cyano-2-(3′-(7-(((R)-3-hydroxypyrrolidin-1-yl)methyl)pyrido [3,2-d]pyrimidin-4-ylamino)-2,2-dimethylbiphenyl-3-yl)benzo[d]oxazol-5-yl)methyl)-3-methylpyrrolidine-3-carboxylic acid]
13 | ≤ 0.01 µM | Cc1c(Nc2nccc3cc(CN4CC[C@](C)(O)C4)cnc23)cccc1-c1cccc(-c2nc3cc(CN4CC[C@@](C)(C(=O)O)C4)cc(C#N)c3o2)c1C [Example 200, (R)-1-((7-cyano-2-(3′-(3-(((S)-3-hydroxy-3-methylpyrrolidin-1-yl)methyl)-1,7-naphthyridin-8-ylamino)-2,2′-dimethylbiphenyl-3-yl)benzo[d]oxazol-5-yl)methyl)-3-methylpyrrolidine-3-carboxylic acid]
14 | ≤ 0.01 µM | Cc1c(-c2nc3cc(CN4CC[C@@H](C(=O)O)C4)cc(C#N)c3o2)cccc1-c1cccc(-c2nc3c(s2)CN(C(=O)CN2CC[C@](C)(O)C2)C3)c1C [Example 115, (R)-1-((7-cyano-2-(3′-(5-(2-((S)-3-hydroxy-3-methylpyrrolidin-1-yl)acetyl)-5,6-dihydro-4H-pyrrolo[3,4-d]thiazol-2-yl)-2,2′-dimethylbiphenyl-3-yl)benzo[d]oxazol-5-yl)methyl)pyrrolidine-3-carboxylic acid]
15 | ≤ 0.01 µM | Cc1c(Nc2nccc3cc(CNCC4(O)CC4)cnc23)cccc1-c1cccc(-c2nc3cc(CN4CC[C@@](C)(C(=O)O)C4)cc(C#N)c3o2)c1C [Example 199, (R)-1-((7-cyano-2-(3′-(3-(((1-hydroxycyclopropyl)methylamino)methyl)-1,7-naphthyridin-8-ylamino)-2,2′-dimethylbiphenyl-3-yl)benzo[d]oxazol-5-yl)methyl)-3-methylpyrrolidine-3-carboxylic acid]
16 | ≤ 0.01 µM | Cc1c(Nc2nccc3cc(CNC(C)(C)CO)cnc23)cccc1-c1cccc(-c2nc3cc(CN4CC[C@@](C)(C(=O)O)C4)cc(C#N)c3o2)c1C [Example 198, (R)-1-((7-cyano-2-(3′-(3-((1-hydroxy-2-methylpropan-2-ylamino)methyl)-1,7-naphthyridin-8-ylamino)-2,2′-dimethylbiphenyl-3-yl)benzo[d]oxazol-5-yl)methyl)-3-methylpyrrolidine-3-carboxylic acid]
17 | ≤ 0.01 µM | Cc1c(-c2nc3cc(CN4CC[C@@](C)(C(=O)O)C4)cc(C#N)c3o2)cccc1-c1cccc(Nc2nccc3cc(CN4CC[C@H](O)C4)cnc23)c1Cl [Example 34, (R)-1-((2-(2′-chloro-3′-(3-(((S)-3-hydroxypyrrolidin-1-yl)methyl)-1,7-naphthyridin-8-ylamino)-2-methylbiphenyl-3-yl)-7-cyanobenzo[d]oxazol-5-yl)methyl)-3-methylpyrrolidine-3-carboxylic acid]
18 | ≤ 0.01 µM | Cc1c(Nc2nccc3cc(CN[C@@H](C)CO)cnc23)cccc1-c1cccc(-c2nc3cc(CN4CC[C@@H](C(=O)O)C4)cc(C#N)c3o2)c1C [Example 257, (R)-1-((7-cyano-2-(3′-(3-(((S)-1-hydroxypropan-2-ylamino)methyl)-1,7-naphthyridin-8-ylamino)-2,2′-dimethylbiphenyl-3-yl)benzo[d]oxazol-5-yl)methyl)pyrrolidine-3-carboxylic acid]
19 | ≤ 0.01 µM | Cc1c(Nc2nccc3cc(CNC[C@@H](C)O)cnc23)cccc1-c1cccc(-c2nc3cc(CN4CC[C@@](C)(C(=O)O)C4)cc(C#N)c3o2)c1C [Example 192, (R)-1-((7-cyano-2-(3′-(3-(((R)-2-hydroxypropylamino)methyl)-1,7-naphtyridin-8-ylamino)-2,2′-dimethylbiphenyl-3-yl)benzo[d]oxazol-5-yl)methyl)-3-methylpyrrolidine-3-carboxylic acid]
